Results: US20110150817A1, “FRESHENING COMPOSITIONS COMPRISING MALODOR BINDING POLYMERS AND MALODOR CONTROL COMPONENTS” (priority 2009, published 2011)
Where two headings read alike, the source gives them in different places.

Key:
[1] = Effect of volatile aldehydes on amine-based malodor (headspace GC/MS); details: 1 μL aldehyde in 10 mL headspace vial
Experimental: A 1 μL sample of each volatile aldehyde listed in Table 6 and each Accord (A, B, and C) listed in Tables 1 to 3 is pipeted into individual 10 mL silanized headspace vials. […] Repeat 4 times for each sample (2 for butylamine analysis and 2 for butanethiol analysis).
For amine analysis, the samples are injected immediately into the system after the malodor is introduced.

[2] = Effect of volatile aldehydes on sulfur-based malodor (headspace GC/MS); details: 30 minutes at room temperature, 1 μL aldehyde in 10 mL headspace vial
Experimental: A 1 μL sample of each volatile aldehyde listed in Table 6 and each Accord (A, B, and C) listed in Tables 1 to 3 is pipeted into individual 10 mL silanized headspace vials. […] Repeat 4 times for each sample (2 for butylamine analysis and 2 for butanethiol analysis). […]

[3] = acid catalysts, as reported by Scifinder; cited from earlier work
[4] = Vapor pressure at 25° C.; type: physicochemical
Experimental: Suitable acid catalysts have a VP, as reported by Scifinder, in the range of about 0.001 torr to about 38 torr, measured at 25° C., alternatively about 0.001 torr to about 14 torr, alternatively from about 0.001 to about 1, alternatively from about 0.001 to about 0.020, alternatively about 0.005 to about 0.020, alternatively about 0.010 to about 0.020.

| Compound | At least 20% butylamine reduction at 40 seconds? [1] | At least 20% butanethiol reduction at 30 minutes? [2] | VP (torr) @25° C. [3] [torr] | VP (torr) @25° C. ([4]; Table 2, materials of Accord B) [torr] | VP (torr) @25° C. ([4]; Table 3, materials of Accord C) [torr] | VP (torr) @25° C. ([4]; Table 1, materials of Accord A) [torr] |
| --- | --- | --- | --- | --- | --- | --- |
| 3,4-Trimethoxy-benzylaldehyde | No | No |  |  |  |  |
| COc1cc(OC)c(OC)cc1C=O [2,4,5 Trimethoxy Benzaldehyde] | No | No |  |  |  |  |
| COc1cc(OC)c(C=O)c(OC)c1 [2,4,6-Trimethoxy-benzylaldehyde] | No | No |  |  |  |  |
| CCOc1ccccc1C=O [2-ethoxy benzylaldehyde] | Yes | Yes |  |  |  |  |
| CC(C)CC=C(C=O)C(C)C [2-isopropyl-5-methyl-2-hexenal] | Yes | Yes |  |  |  |  |
| CC(C=O)=Cc1ccco1 [2-methyl-3-(2-furyl)-propenal] | No | No |  |  |  |  |
| COc1cc(C=O)cc(OC)c1OC [3,4,5 Trimethoxy Benzaldehyde] | No | No |  |  |  |  |
| CC(C)(C)c1ccc(C=O)cc1 [4-tertbutyl benzylaldehyde] | Yes | No |  |  |  |  |
| Cc1ccc(C(=O)O)s1 [5-Methyl thiophene carboxylic acid] |  |  | 0.019 |  |  |  |
| Cc1ccc(C=O)o1 [5-methyl furfural] | Yes | Yes |  |  |  |  |
| Cc1ccc(C=O)s1 [5-methyl-thiophene-carboxaldehyde] | No | Yes |  |  |  |  |
| CC(C)=CCCC(C)CCCC(C)C=O (centres unmarked) [Adoxal, 2,6,10-Trimethyl-9-undecenal] | Yes | No |  | 0.007 | 0.007 |  |
| CCCCCC(C=O)=Cc1ccccc1 [Amyl cinnamic aldehyde, alpha-Amylcinnamic aldehyde] | No | No |  |  |  |  |
| O=Cc1ccccc1 [Benzylaldehyde] | Yes | No |  |  |  |  |
| CC(C)(C)c1ccc(CCC=O)cc1 [Bourgeonal, 4-t-butylbenzenepropionaldehyde] | No | Yes |  |  | 0.004 |  |
| O=CC=Cc1ccccc1 [Cinnamic aldehyde, 3-phenyl-2-propenal] | Yes | Yes |  |  |  |  |
| CC(C)=CCCC(C)CCOCC=O (centres unmarked) [Citronelyl Oxyacetaldehyde, Citronellyl oxyacetaldehyde] | No | No |  |  |  |  |
| CC(C=O)Cc1ccc(C(C)C)cc1 (stereo not drawn) [Cymal, Alpha-methyl-p-isopropyl phenyl propyl aldehyde] | Yes | No |  | 0.007 | 0.007 | 0.007 |
| CCCCCCCCCC=O [Decyl aldehyde] | Yes | No |  |  |  |  |
| CC(=O)OC1CC2CC1C1CC=CC21 (centres unmarked) [Flor Acetate] |  |  |  |  | 0.060 |  |
| C=CC(C)CCC=C(C)CCC=O (centres unmarked) [Floral Super] | Yes | Yes |  | 0.030 | 0.030 | 0.030 |

| Compound | At least 20% butylamine reduction at 40 seconds? [1] | At least 20% butanethiol reduction at 30 minutes? [2] | VP (torr) @25° C. [3] [torr] | VP (torr) @25° C. ([4]; Table 2, materials of Accord B) [torr] | VP (torr) @25° C. ([4]; Table 3, materials of Accord C) [torr] | VP (torr) @25° C. ([4]; Table 1, materials of Accord A) [torr] |
| --- | --- | --- | --- | --- | --- | --- |
| CCc1ccc(CC(C)(C)C=O)cc1 [Floralozone, para-ethyl-alpha,alpha-dimethyl Hydrocinnamaldehyde] | No | No |  | 0.005 | 0.005 |  |
| CC(C)c1cccc(C(C)CC=O)c1 (centres unmarked) [Florhydral, 3-(3-Isopropyl-phenyl)-butyraldehyde] | Yes | Yes |  | 0.008 | 0.008 | 0.008 |
| CCC(=O)OC1CC2CC1C1CC=CC21 (centres unmarked) [Frutene] |  |  |  |  | 0.020 |  |
| CC(C=O)Cc1ccc2c(c1)OCO2 (stereo not drawn) [Helional, alpha-methyl-3,4-(methylenedioxy)-hydrocinnamaldehyde] | Yes | No |  |  | 0.0005 |  |
| CC(CC=O)CCCC(C)(C)O (centres unmarked) [Hydroxycitronellal, 7-hydroxy-3,7-dimethyl octan-1-al] | No | No |  |  |  |  |
| C=CCCCCCCCCC=O [Intreleven Aldehyde, undec-10-en-1-al] |  |  |  | 0.060 | 0.060 | 0.060 |
| CCCCCCCCCCCC=O [Lauric aldehyde] | Yes | No |  |  |  |  |
| CC1=CC(C)C(C=O)CC1 (centres unmarked) [Ligustral, 2,4-dimethyl-3-cyclohexene-1-carboxaldehyde] | Yes | No |  |  |  |  |
| C=CC(C)(O)CCC=C(C)C (centres unmarked) [Linalool] |  |  |  |  | 0.050 |  |
| CC(C)(O)CCCC1=CCC(C=O)CC1 (centres unmarked) [Lyral, 4-(4-hydroxy-4-methylpentyl)-3-cyclohexene-1-carboxaldehyde] | Yes | No |  |  |  |  |
| CC(C)=CCCC(C)C=O (centres unmarked) [Melonal, 2,6-Dimethyl-5-Heptenal] | Yes | No |  | 0.670 | 0.670 |  |
| CCCCCCCCCC(C)C=O (centres unmarked) [Methyl Nonyl Acetaldehyde, 2-methyl-1-undecanal] | No | No |  | 0.030 | 0.030 |  |
| CC(C=O)Cc1ccc(C(C)(C)C)cc1 (stereo not drawn) [P.T. Bucinal, 4-tert-butyl-alpha-methyl-hydrocinnamaldehyde] | Yes | No |  |  |  |  |
| CC1(C)C2CC=C(CCC=O)C1C2 (centres unmarked) [Pino acetaldehyde] | Yes | Yes |  |  |  |  |
| COC1CC2CC1C1CC(C=O)CC21 (centres unmarked) [Scentenal, octahydro-5-methoxy-4,7-Methano-1H-indene-2-carboxaldehyde] |  |  |  | 0.010 | 0.010 | 0.010 |
| O=Cc1cccs1 [Thiophene Carboxaldehyde] | Yes | No |  |  |  |  |
| CCCC/C=C/C=C/C=O [Trans Trans 2,4-Nonadienal] | Yes | No |  |  |  |  |
| CCCCC/C=C/CCC=O [Trans-4-decenal] | Yes | Yes |  |  |  |  |
| CCCCCCCCCCC=O [Undecyl aldehyde] | Yes | No |  |  |  |  |
| COc1ccccc1C=O [o-anisaldehyde] | Yes | Yes |  | 0.032 | 0.320 | 0.032 |
| COc1ccc(C=O)cc1 [p-anisaldehyde, p-methoxybenzene aldehyde] | Yes | No |  |  |  |  |
